Assays:
CDK4-cyclinD1 = CDK4-cyclinD1 (Homo sapiens, UniProt P11802); assay: scanMAX kinase assay panel; format: binding; parameters: purchased DiscoverX (scanMAX panel, contract assay); conditions: read-out: control percentage (% control)
Protocol: The activities of the compounds according to the present invention to more diverse enzymes were evaluated. Specifically, it was decided that the enzyme selectivity of Example 74 selected from the compounds of Examples 1 to 129 was measured at the request of DiscoverX, and the experiment was conducted using a scanMAX™ kinase assay panel. At this time, as a drug to treat the enzyme, a solution prepared by dissolving in DMSO at a concentration of 1 μM was used, and the control percentage (% control) was determined by the method of Equation 1 below, and the results were shown in Table 2 below.
In Equation above, the positive control and negative control mean compounds showing control percentages of 0% and 100% as DMSO, respectively.

CDK6 cyclin D1 = biological target: T1, CDK6 cyclin D1 (Homo sapiens, UniProt Q00534); assay: CDK6 enzyme inhibitory ability (Reaction Biology); format: biochemical; conditions: measured in Reaction Biology (USA)
T1 construct: purchased Reaction Biology (USA), contract assay
T1 sequence (Q00534 whole entry): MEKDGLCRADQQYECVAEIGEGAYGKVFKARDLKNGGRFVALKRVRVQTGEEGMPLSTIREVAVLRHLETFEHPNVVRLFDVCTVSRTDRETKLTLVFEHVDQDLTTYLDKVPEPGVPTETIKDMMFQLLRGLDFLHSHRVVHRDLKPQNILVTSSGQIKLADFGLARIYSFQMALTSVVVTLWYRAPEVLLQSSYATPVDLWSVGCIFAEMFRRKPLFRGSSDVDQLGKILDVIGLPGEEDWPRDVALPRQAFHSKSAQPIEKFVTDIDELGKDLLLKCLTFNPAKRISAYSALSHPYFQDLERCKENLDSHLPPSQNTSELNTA
T1 sequence (P24385 whole entry partner): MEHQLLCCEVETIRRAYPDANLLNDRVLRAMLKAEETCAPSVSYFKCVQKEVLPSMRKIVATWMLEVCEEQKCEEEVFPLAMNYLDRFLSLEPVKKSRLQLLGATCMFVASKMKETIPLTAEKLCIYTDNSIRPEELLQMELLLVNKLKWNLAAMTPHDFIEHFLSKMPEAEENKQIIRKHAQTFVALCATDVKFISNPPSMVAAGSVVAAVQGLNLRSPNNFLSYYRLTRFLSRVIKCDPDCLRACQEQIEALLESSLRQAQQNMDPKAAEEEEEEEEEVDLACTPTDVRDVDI
Protocol: In order to evaluate the CDK4 and CDK6 enzyme inhibitory activities of the example compounds according to the present invention, IC5O (nM) was measured for the CDK4 cyclin D1 and CDK6 cyclin D1 enzymes in Reaction Biology (USA), and the results were shown in Table 3 below.

human FLT3-ITD enzyme = biological target: T2, human FLT3-ITD enzyme (Homo sapiens, UniProt P36888); assay: FLT3 enzyme inhibitory ability (ADP-Glo kinase assay); format: biochemical; conditions: human FLT3-ITD enzyme 10 ng, ATP 10 μM, 25° C. 1 hour
T2 sequence (P36888 1-993): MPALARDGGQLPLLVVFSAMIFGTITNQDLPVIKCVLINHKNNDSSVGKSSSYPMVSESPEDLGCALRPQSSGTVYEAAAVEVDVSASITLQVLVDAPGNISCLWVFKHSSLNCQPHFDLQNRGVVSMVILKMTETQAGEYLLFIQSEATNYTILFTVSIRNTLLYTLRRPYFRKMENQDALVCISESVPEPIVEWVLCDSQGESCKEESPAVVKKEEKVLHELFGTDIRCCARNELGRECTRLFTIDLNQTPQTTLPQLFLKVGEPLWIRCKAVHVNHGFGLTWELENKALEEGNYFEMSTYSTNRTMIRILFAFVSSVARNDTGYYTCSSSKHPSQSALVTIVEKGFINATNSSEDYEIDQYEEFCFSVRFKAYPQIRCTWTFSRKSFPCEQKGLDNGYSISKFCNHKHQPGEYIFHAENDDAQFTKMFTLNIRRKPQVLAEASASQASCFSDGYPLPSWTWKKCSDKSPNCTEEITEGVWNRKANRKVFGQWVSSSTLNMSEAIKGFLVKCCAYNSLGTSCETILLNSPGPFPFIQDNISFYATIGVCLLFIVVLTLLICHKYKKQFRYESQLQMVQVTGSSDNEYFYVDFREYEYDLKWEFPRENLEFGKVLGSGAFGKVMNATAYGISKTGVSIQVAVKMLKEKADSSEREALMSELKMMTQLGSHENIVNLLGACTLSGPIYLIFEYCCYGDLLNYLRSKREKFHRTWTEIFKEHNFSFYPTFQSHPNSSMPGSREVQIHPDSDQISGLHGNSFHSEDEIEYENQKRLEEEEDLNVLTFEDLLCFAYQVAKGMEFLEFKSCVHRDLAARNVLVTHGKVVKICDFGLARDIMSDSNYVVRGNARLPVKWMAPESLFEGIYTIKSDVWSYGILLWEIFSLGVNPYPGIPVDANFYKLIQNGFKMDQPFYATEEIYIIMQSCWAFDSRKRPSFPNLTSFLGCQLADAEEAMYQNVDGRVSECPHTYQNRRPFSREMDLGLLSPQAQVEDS
Procedure, shortened: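 Purified human FLT3-ITD (10 ng) with 10 μM ATP and specific substrate in 40 mM Tris-HCl pH 7.4, 20 mM MgCl2, 0.5 mg/mL BSA, 50 μM DTT, 1 h at 25 °C. ADP formation read by ADP-Glo luminescence; IC50 (nM) versus solvent-treated control.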

MV4-11 cells = assay: AML cell proliferation inhibitory activity (CellTiter-Glo); format: cell-based; conditions: Homo sapiens, 72 hours
Procedure, shortened: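 RS4;11 and MV4-11 cells in RPMI-1640 with 10% FBS, seeded 24 h before treatment, then exposed 72 h to 12 three-fold dilutions (0.3 nM–50 μM final). Viability by CellTiter-Glo luminescence relative to solvent control; GI50 from triplicate experiments.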

Chain of CDK4-cyclinD1 (P11802 whole entry): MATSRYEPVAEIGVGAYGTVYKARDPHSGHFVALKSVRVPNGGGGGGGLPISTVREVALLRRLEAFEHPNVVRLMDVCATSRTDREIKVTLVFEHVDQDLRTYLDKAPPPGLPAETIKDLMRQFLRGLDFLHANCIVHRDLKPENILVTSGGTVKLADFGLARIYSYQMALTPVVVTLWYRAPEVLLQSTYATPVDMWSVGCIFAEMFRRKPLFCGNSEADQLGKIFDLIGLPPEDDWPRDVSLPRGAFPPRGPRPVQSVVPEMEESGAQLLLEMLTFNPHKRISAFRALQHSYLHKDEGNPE
Chain of CDK4-cyclinD1 (P24385 whole entry partner): as the sequence (P24385 whole entry partner) above

`CN1CCN(c2ccc(Nc3nc(N4OCC[C@H]4c4ccccc4)c4cc[nH]c4n3)cc2)CC1` [Example 74, (S)-N-(4-(4-methylpiperazin-1-yl)phenyl)-4-(3-phenylisoxazolidin-2-yl)-7H-pyrrolo[2,3-d]pyrimidin-2-amine] was tested, and the remaining binding at 1 µM (CDK4-cyclinD1) was 0.55%, the IC50 (CDK6 cyclin D1) was ≥ 250 nM and the IC50 (human FLT3-ITD enzyme) was > 500 nM. The GI50 (MV4-11 cells) was ≥ 250 nM.

From patent US20220242870A1, “HETEROCYCLE-FUSED PYRIMIDINE DERIVATIVE AND USE THEREOF” (VORONOI Inc., priority 2019, published 2022)
